Results taken from US10597388B2, “Pyridazinone herbicides” (FMC CORPORATION, priority 2014, dated 2020).

Experiments:
Type in all cases: in vivo
rice (Oryza sativa) = test: Test B flooded paddy test; conditions: 250 g ai/ha, Flood; visual rating on scale of 0 to 100 where 0 is no effect and 100 is complete control; 13 to 15 d after treatment
Outline: (§1)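 Plants at the 2-leaf stage were flooded to 3 cm above soil, and test compounds were applied directly into the paddy water, which was held at that depth throughout. After 13 to 15 d in a greenhouse, injury was rated visually against untreated controls on a 0–100 scale (0 no effect, 100 complete control).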

[1] = tested on: ducksalad (Heteranthera limosa); test: Test B flooded paddy test; conditions: 250 g ai/ha, Flood; visual rating on scale of 0 to 100 where 0 is no effect and 100 is complete control; 13 to 15 d after treatment
Outline: as §1

[2] = tested on: sedge, umbrella (small-flower umbrella sedge, Cyperus difformis); test: Test B flooded paddy test; conditions: 250 g ai/ha, Flood; visual rating on scale of 0 to 100 where 0 is no effect and 100 is complete control; 13 to 15 d after treatment
Outline: as §1

[3] = tested on: barnyardgrass (Echinochloa crus-galli); test: Test B flooded paddy test; conditions: 250 g ai/ha, Flood; visual rating on scale of 0 to 100 where 0 is no effect and 100 is complete control; 13 to 15 d after treatment
Outline: as §1

[4] = tested on: pigweed (Amaranthus retroflexus); test: Test A greenhouse herbicide test, pre- and postemergence
Outline: (§2)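 Seeds sown in loam–sand blend got a preemergence directed soil spray of compound in non-phytotoxic solvent with surfactant. Postemergence treatment was given at 2–10 cm, one- to two-leaf stage. After ~10 d in greenhouse, injury was rated visually vs untreated controls, 0 (no effect) to 100 (complete control).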

kochia (Kochia scoparia) = test: as above
Outline: as §2

[5] = tested on: wheat (Triticum aestivum); test: as above; conditions: Postemergence
Outline: as §2

corn (Zea mays) = test: as above; conditions: Postemergence
Outline: as §2

[6] = tested on: barnyardgrass (Echinochloa crus-galli); test: as above
Outline: as §2

[7] = tested on: foxtail, giant (giant foxtail, Setaria faberii); test: as above
Outline: as §2

[8] = tested on: ragweed (common ragweed, Ambrosia elatior); test: as above
Outline: as §2

[9] = tested on: ryegrass, Italian (Italian ryegrass, Lolium multiflorum); test: as above
Outline: as §2

[10] = tested on: galium (catchweed bedstraw, Galium aparine); test: Test A greenhouse herbicide test, postemergence
Outline: (§3)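 Plants grown in loam soil/sand blend pots were treated postemergence at 2 to 10 cm height, one- to two-leaf stage, with formulated test chemicals. After approximately 10 d in a greenhouse, injury was rated visually against untreated controls on a 0 to 100 scale (0 no effect, 100 complete control).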

[11] = tested on: blackgrass (Alopecurus myosuroides); test: Test A greenhouse herbicide test, postemergence
Outline: as §3

[12] = Postemergence, 125 g ai/ha, 0 to 100 scale where 0 is no effect and 100 is complete control
[13] = Postemergence, 500 g ai/ha, visual rating after approx. 10 d, 0 to 100 scale (0 no effect, 100 complete control)
[14] = Preemergence, 125 g ai/ha, 0 to 100 scale where 0 is no effect and 100 is complete control
[15] = Preemergence, 500 g ai/ha, 0 to 100 scale where 0 is no effect and 100 is complete control
[16] = 125 g ai/ha, 0 to 100 scale where 0 is no effect and 100 is complete control
[17] = 500 g ai/ha, visual rating after approx. 10 d, 0 to 100 scale (0 no effect, 100 complete control)

## CCc1nn(C)c(=O)c(-c2c(C)oc3ccc(C)cc23)c1O [Compound 118]
Rice (Oryza sativa)
  Plant response rating, Rice: 0
[1]
  Plant response rating, Ducksalad: 0
[2]
  Plant response rating, Sedge, Umbrella: 0
[3]
  Plant response rating, Barnyardgrass: 0
[4]; [12]
  Plant response rating, Pigweed: 0
[4]; [13]
  Plant response rating, Pigweed: 0
[4]; [14]
  Pigweed plant response rating: 0
[4]; [15]
  Plant response rating, Pigweed: 10
Kochia (Kochia scoparia); [12]
  Plant response rating, Kochia: 0
Kochia (Kochia scoparia); [13]
  Plant response rating, Kochia: 0
Kochia (Kochia scoparia); [14]
  Kochia plant response rating: 0
Kochia (Kochia scoparia); [15]
  Plant response rating, Kochia: 0
[5]; [16]
  Plant response rating, Wheat: 0
[5]; [17]
  Plant response rating, Wheat: 0
Corn (Zea mays); [16]
  Plant response rating, Corn: 0
Corn (Zea mays); [17]
  Plant response rating, Corn: 0
[6]; [12]
  Plant response rating, Barnyardgrass: 0
[6]; [13]
  Plant response rating, Barnyardgrass: 0
[6]; [14]
  Barnyardgrass plant response rating: 0
[6]; [15]
  Plant response rating, Barnyardgrass: 30
[7]; [12]
  Plant response rating, Foxtail, Giant: 0
[7]; [13]
  Plant response rating, Foxtail, Giant: 0
[7]; [14]
  Foxtail, Giant plant response rating: 0
[7]; [15]
  Plant response rating, Foxtail, Giant: 20
[8]; [12]
  Plant response rating, Ragweed: 0
[8]; [13]
  Plant response rating, Ragweed: 0
[8]; [14]
  Ragweed plant response rating: 0
[8]; [15]
  Plant response rating, Ragweed: 0
[9]; [12]
  Plant response rating, Ryegrass, Italian: 0
[9]; [13]
  Plant response rating, Ryegrass, Italian: 0
[9]; [14]
  Ryegrass, Italian plant response rating: 0
[9]; [15]
  Plant response rating, Ryegrass, Italian: 0
[10]; [16]
  Plant response rating, Galium: 0
[10]; [17]
  Plant response rating, Galium: 0
[11]; [16]
  Plant response rating, Blackgrass: 0
[11]; [17]
  Plant response rating, Blackgrass: 0

## Cc1ccc2oc(C)c(-c3c(O)c(C(C)C)nn(C)c3=O)c2c1 [Compound 119]
Rice (Oryza sativa)
  Plant response rating, Rice: 0
[1]
  Plant response rating, Ducksalad: 0
[2]
  Plant response rating, Sedge, Umbrella: 0
[3]
  Plant response rating, Barnyardgrass: 0
[4]; [12]
  Plant response rating, Pigweed: 0
[4]; [13]
  Plant response rating, Pigweed: 0
[4]; [14]
  Pigweed plant response rating: 0
[4]; [15]
  Plant response rating, Pigweed: 0
Kochia (Kochia scoparia); [12]
  Plant response rating, Kochia: 0
Kochia (Kochia scoparia); [13]
  Plant response rating, Kochia: 0
Kochia (Kochia scoparia); [14]
  Kochia plant response rating: 0
Kochia (Kochia scoparia); [15]
  Plant response rating, Kochia: 0
[5]; [16]
  Plant response rating, Wheat: 0
[5]; [17]
  Plant response rating, Wheat: 0
Corn (Zea mays); [16]
  Plant response rating, Corn: 0
Corn (Zea mays); [17]
  Plant response rating, Corn: 0
[6]; [12]
  Plant response rating, Barnyardgrass: 0
[6]; [13]
  Plant response rating, Barnyardgrass: 0
[6]; [14]
  Barnyardgrass plant response rating: 0
[6]; [15]
  Plant response rating, Barnyardgrass: 0
[7]; [12]
  Plant response rating, Foxtail, Giant: 0
[7]; [13]
  Plant response rating, Foxtail, Giant: 0
[7]; [14]
  Foxtail, Giant plant response rating: 0
[7]; [15]
  Plant response rating, Foxtail, Giant: 0
[8]; [12]
  Plant response rating, Ragweed: 0
[8]; [13]
  Plant response rating, Ragweed: 0
[8]; [14]
  Ragweed plant response rating: 0
[8]; [15]
  Plant response rating, Ragweed: 0
[9]; [12]
  Plant response rating, Ryegrass, Italian: 0
[9]; [13]
  Plant response rating, Ryegrass, Italian: 0
[9]; [14]
  Ryegrass, Italian plant response rating: 0
[9]; [15]
  Plant response rating, Ryegrass, Italian: 0
[10]; [16]
  Plant response rating, Galium: 0
[10]; [17]
  Plant response rating, Galium: 0
[11]; [16]
  Plant response rating, Blackgrass: 0
[11]; [17]
  Plant response rating, Blackgrass: 0

## COc1nn(C)c(=O)c(-c2c(C)sc3ccc(Cl)cc23)c1OC(C)=O [Compound 122]
Rice (Oryza sativa)
  Plant response rating, Rice: 0
[1]
  Plant response rating, Ducksalad: 0
[2]
  Plant response rating, Sedge, Umbrella: 0
[3]
  Plant response rating, Barnyardgrass: 0
[4]; [12]
  Plant response rating, Pigweed: 30
[4]; [13]
  Plant response rating, Pigweed: 70
[4]; [14]
  Pigweed plant response rating: 100
[4]; [15]
  Plant response rating, Pigweed: 100
Kochia (Kochia scoparia); [12]
  Plant response rating, Kochia: 40
Kochia (Kochia scoparia); [13]
  Plant response rating, Kochia: 70
Kochia (Kochia scoparia); [14]
  Kochia plant response rating: 30
Kochia (Kochia scoparia); [15]
  Plant response rating, Kochia: 70
[5]; [16]
  Plant response rating, Wheat: 0
[5]; [17]
  Plant response rating, Wheat: 0
Corn (Zea mays); [16]
  Plant response rating, Corn: 0
Corn (Zea mays); [17]
  Plant response rating, Corn: 20
[6]; [12]
  Plant response rating, Barnyardgrass: 20
[6]; [13]
  Plant response rating, Barnyardgrass: 30
[6]; [14]
  Barnyardgrass plant response rating: 0
[6]; [15]
  Plant response rating, Barnyardgrass: 30
[7]; [12]
  Plant response rating, Foxtail, Giant: 40
[7]; [13]
  Plant response rating, Foxtail, Giant: 60
[7]; [14]
  Foxtail, Giant plant response rating: 30
[7]; [15]
  Plant response rating, Foxtail, Giant: 70
[8]; [12]
  Plant response rating, Ragweed: 50
[8]; [13]
  Plant response rating, Ragweed: 60
[8]; [15]
  Plant response rating, Ragweed: 80
[9]; [12]
  Plant response rating, Ryegrass, Italian: 50
[9]; [13]
  Plant response rating, Ryegrass, Italian: 70
[9]; [14]
  Ryegrass, Italian plant response rating: 70
[9]; [15]
  Plant response rating, Ryegrass, Italian: 90
[10]; [16]
  Plant response rating, Galium: 60
[10]; [17]
  Plant response rating, Galium: 70
[11]; [16]
  Plant response rating, Blackgrass: 30
[11]; [17]
  Plant response rating, Blackgrass: 40

## Cc1ccc2ccccc2c1-c1c(OC(=O)C(C)(C)C)c(C#N)nn(C)c1=O [Compound 128]
Rice (Oryza sativa)
  Plant response rating, Rice: 0
[1]
  Plant response rating, Ducksalad: 30
[2]
  Plant response rating, Sedge, Umbrella: 0
[3]
  Plant response rating, Barnyardgrass: 0
[4]; [12]
  Plant response rating, Pigweed: 70
[4]; [13]
  Plant response rating, Pigweed: 90
[4]; [14]
  Pigweed plant response rating: 90
[4]; [15]
  Plant response rating, Pigweed: 100
Kochia (Kochia scoparia); [12]
  Plant response rating, Kochia: 0
Kochia (Kochia scoparia); [13]
  Plant response rating, Kochia: 0
Kochia (Kochia scoparia); [14]
  Kochia plant response rating: 0
Kochia (Kochia scoparia); [15]
  Plant response rating, Kochia: 0
[5]; [16]
  Plant response rating, Wheat: 0
[5]; [17]
  Plant response rating, Wheat: 0
Corn (Zea mays); [16]
  Plant response rating, Corn: 0
Corn (Zea mays); [17]
  Plant response rating, Corn: 0
[6]; [12]
  Plant response rating, Barnyardgrass: 50
[6]; [13]
  Plant response rating, Barnyardgrass: 80
[6]; [14]
  Barnyardgrass plant response rating: 50
[6]; [15]
  Plant response rating, Barnyardgrass: 90
[7]; [12]
  Plant response rating, Foxtail, Giant: 50
[7]; [13]
  Plant response rating, Foxtail, Giant: 70
[7]; [14]
  Foxtail, Giant plant response rating: 80
[7]; [15]
  Plant response rating, Foxtail, Giant: 90
[8]; [12]
  Plant response rating, Ragweed: 10
[8]; [13]
  Plant response rating, Ragweed: 30
[8]; [14]
  Ragweed plant response rating: 70
[8]; [15]
  Plant response rating, Ragweed: 70
[9]; [12]
  Plant response rating, Ryegrass, Italian: 20
[9]; [13]
  Plant response rating, Ryegrass, Italian: 50
[9]; [14]
  Ryegrass, Italian plant response rating: 10
[9]; [15]
  Plant response rating, Ryegrass, Italian: 30
[10]; [16]
  Plant response rating, Galium: 40
[10]; [17]
  Plant response rating, Galium: 70
[11]; [16]
  Plant response rating, Blackgrass: 0
[11]; [17]
  Plant response rating, Blackgrass: 20

## COC(=O)Oc1c(C)nn(C)c(=O)c1-c1c(C(F)(F)F)ccc2ccccc12 [Compound 149]
Rice (Oryza sativa)
  Plant response rating, Rice: 0
[1]
  Plant response rating, Ducksalad: 0
[2]
  Plant response rating, Sedge, Umbrella: 0
[3]
  Plant response rating, Barnyardgrass: 0
[4]; [12]
  Plant response rating, Pigweed: 90
[4]; [13]
  Plant response rating, Pigweed: 100
[4]; [14]
  Pigweed plant response rating: 100
[4]; [15]
  Plant response rating, Pigweed: 100
Kochia (Kochia scoparia); [12]
  Plant response rating, Kochia: 80
Kochia (Kochia scoparia); [13]
  Plant response rating, Kochia: 100
Kochia (Kochia scoparia); [14]
  Kochia plant response rating: 40
Kochia (Kochia scoparia); [15]
  Plant response rating, Kochia: 90
[5]; [16]
  Plant response rating, Wheat: 20
[5]; [17]
  Plant response rating, Wheat: 70
Corn (Zea mays); [16]
  Plant response rating, Corn: 20
Corn (Zea mays); [17]
  Plant response rating, Corn: 30
[6]; [12]
  Plant response rating, Barnyardgrass: 20
[6]; [13]
  Plant response rating, Barnyardgrass: 20
[6]; [14]
  Barnyardgrass plant response rating: 0
[6]; [15]
  Plant response rating, Barnyardgrass: 70
[7]; [12]
  Plant response rating, Foxtail, Giant: 40
[7]; [13]
  Plant response rating, Foxtail, Giant: 80
[7]; [14]
  Foxtail, Giant plant response rating: 30
[7]; [15]
  Plant response rating, Foxtail, Giant: 90
[8]; [12]
  Plant response rating, Ragweed: 90
[8]; [13]
  Plant response rating, Ragweed: 90
[8]; [15]
  Plant response rating, Ragweed: 90
[9]; [12]
  Plant response rating, Ryegrass, Italian: 70
[9]; [13]
  Plant response rating, Ryegrass, Italian: 100
[9]; [15]
  Plant response rating, Ryegrass, Italian: 90
[10]; [16]
  Plant response rating, Galium: 90
[10]; [17]
  Plant response rating, Galium: 100
[11]; [16]
  Plant response rating, Blackgrass: 30
[11]; [17]
  Plant response rating, Blackgrass: 70
